This assay has as its target T1, Recombinant (1-346) HPK1 (h) (Homo sapiens, UniProt Q92918).
T1 construct: Recombinant (1-346) HPK1 (h) is incubated with 8 mM MOPS pH 7.0
T1 sequence (Q92918 1-346): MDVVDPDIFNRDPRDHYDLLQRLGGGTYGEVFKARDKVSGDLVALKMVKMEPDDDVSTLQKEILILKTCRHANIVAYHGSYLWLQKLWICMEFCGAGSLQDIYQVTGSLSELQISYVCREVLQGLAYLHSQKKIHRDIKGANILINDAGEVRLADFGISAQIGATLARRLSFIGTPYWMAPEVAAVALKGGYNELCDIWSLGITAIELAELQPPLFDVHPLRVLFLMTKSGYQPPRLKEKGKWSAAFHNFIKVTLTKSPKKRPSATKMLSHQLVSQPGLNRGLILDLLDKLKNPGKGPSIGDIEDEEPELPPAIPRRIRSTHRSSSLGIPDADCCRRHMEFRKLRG
In words: HPK1 human STE kinase enzymatic radiometric assay. The class given is biochemical. Conditions: read-out: HPK1 IC50 nM Range. The method, boiled down:
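Compounds in 3-fold, 9-point serial dilution; kinase (residues 1-346) phosphorylates myelin basic protein (0.33 mg/mL) using [gamma-33P]-ATP at pH 7.0 (MOPS, EDTA, Mg acetate) for 40 min, room temperature. Acid-quenched mixture filtered onto P30 mats; incorporated radioactivity read by scintillation counting.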
Regarding `Nc1nc(F)c(-c2ccc(N3CCN(CCC(F)F)CC3)cc2)nc1-c1cc(F)c2c(c1)CCNC2=O` [Example I-82, 6-(3-amino-6-(4-(4-(3,3-difluoropropyl)piperazin-1-yl)phenyl)-5-fluoropyrazin-2-yl)-8-fluoro-3,4-dihydroisoquinolin-1(2H)-one], the IC50 is 0.1 to 10 nM.

`Nc1nc(F)c(-c2ccc(N3CCOCC3)c(CN3CCC3)c2F)nc1-c1cc2c(cc1F)C(=O)NCC2` [Example I-244, 6-(3-amino-6-(3-(azetidin-1-ylmethyl)-2-fluoro-4-morpholinophenyl)-5-fluoropyrazin-2-yl)-7-fluoro-3,4-dihydroisoquinolin-1(2H)-one]: the IC50 was in the range of 11 to 100 nM.

For the compound `Cc1nc2cc(-c3nc(-c4ccc(N5CCN(CCCC(F)F)CC5)cc4)c(F)nc3N)ccc2c(=O)[nH]1` [Example I-81, 7-(3-amino-6-(4-(4-(4,4-difluorobutyl)piperazin-1-yl)phenyl)-5-fluoropyrazin-2-yl)-2-methylquinazolin-4(3H)-one], the IC50 was in the range of 11 to 100 nM.

With `Cc1c[nH]c(=O)c2ccc(-c3nc(-c4ccc(N5CCN(CCCC(F)F)CC5)cc4)c(F)nc3N)cc12` [Example I-73, 6-(3-amino-6-(4-(4-(4,4-difluorobutyl)piperazin-1-yl)phenyl)-5-fluoropyrazin-2-yl)-4-methylisoquinolin-1(2H)-one], the IC50 was in the range of 0.1 to 10 nM.

Consider `C[C@H]1CCCN1Cc1cc(-c2nc(-c3ccc4c(=O)[nH]cc(Cl)c4c3)c(N)nc2F)ccc1C1CCOCC1` [Example I-229, (S)-6-(3-amino-5-fluoro-6-(3-((2-methylpyrrolidin-1-yl)methyl)-4-(tetrahydro-2H-pyran-4-yl)phenyl)pyrazin-2-yl)-4-chloroisoquinolin-1(2H)-one], for which the IC50 lay within 11 to 100 nM.

For the compound `CN(C)Cc1cc(-c2nc(-c3ccc4c(c3)CCNC4=O)c(N)nc2F)ccc1N1CCSCC1` [Example I-128, 6-(3-amino-6-(3-((dimethylamino)methyl)-4-thiomorpholinophenyl)-5-fluoropyrazin-2-yl)-3,4-dihydroisoquinolin-1(2H)-one], the IC50 lay in the range of 0.1 to 10 nM.

For `C[C@@H]1CN(C)CCN1c1ccc(-c2nc(-c3ccc4c(c3)CCNC4=O)c(N)nc2F)cc1` [Example I-52, (R)-6-(3-amino-6-(4-(2,4-dimethylpiperazin-1-yl)phenyl)-5-fluoropyrazin-2-yl)-3,4-dihydroisoquinolin-1(2H)-one], the IC50 was in the range of 0.1 to 10 nM.

As for `Nc1nc(F)c(-c2ccc(N3CCOCC3)cn2)nc1-c1ccc2c(c1)CCNC2=O` [Example I-201, 6-(3-amino-5-fluoro-6-(5-morpholinopyridin-2-yl)pyrazin-2-yl)-3,4-dihydroisoquinolin-1(2H)-one], the IC50 fell in the range of 11 to 100 nM.

Turning to `COC1CN(Cc2cc(-c3nc(-c4cc(F)c5c(c4)CCNC5=O)c(N)nc3F)ccc2N2CCOCC2)C1` [Example I-192, 6-(3-amino-5-fluoro-6-(3-((3-methoxyazetidin-1-yl)methyl)-4-morpholinophenyl)pyrazin-2-yl)-8-fluoro-3,4-dihydroisoquinolin-1(2H)-one], the IC50 was in the range of 0.1 to 10 nM.

`COCCN(C)Cc1cc(-c2nc(-c3ccc4c(c3)CCNC4=O)c(N)nc2F)ccc1N1CCOCC1` [Example I-160, 6-(3-amino-5-fluoro-6-(3-(((2-methoxyethyl)(methyl)amino)methyl)-4-morpholinophenyl)pyrazin-2-yl)-3,4-dihydroisoquinolin-1(2H)-one]: the IC50 lay in the range of 0.1 to 10 nM.

As to `Nc1nc(F)c(-c2ccc(N3CCOCC3)cc2)nc1-c1cc2c(cc1F)C(=O)NCC2` [Example I-34, 6-(3-amino-5-fluoro-6-(4-morpholinophenyl)pyrazin-2-yl)-7-fluoro-3,4-dihydroisoquinolin-1(2H)-one], the half-inhibitory concentration (IC50) fell in the range of 0.1 to 10 nM.

Consider `Cc1[nH]c(=O)c2cc(F)c(-c3nc(-c4ccc(N5CCN(C(C)C)CC5)cc4)c(F)nc3N)cc2c1F` [Example I-168, 6-(3-amino-5-fluoro-6-(4-(4-isopropylpiperazin-1-yl)phenyl)pyrazin-2-yl)-4,7-difluoro-3-methylisoquinolin-1(2H)-one], for which the IC50 fell in the range of 0.1 to 10 nM.

Regarding `COC1CCN(Cc2cc(-c3nc(-c4ccc5c(c4)CCNC5=O)c(N)nc3F)ccc2C2CCOCC2)CC1` [Example I-131, 6-(3-amino-5-fluoro-6-(3-((4-methoxypiperidin-1-yl)methyl)-4-(tetrahydro-2H-pyran-4-yl)phenyl)pyrazin-2-yl)-3,4-dihydroisoquinolin-1(2H)-one], the IC50 fell in the range of 11 to 100 nM.

Consider `Cc1c[nH]c(=O)c2ccc(-c3nc(-c4cc(CN(C)C)c(N5CCOCC5)c(F)c4F)c(F)nc3N)cc12` [Example I-264, 6-(3-amino-6-(5-((dimethylamino)methyl)-2,3-difluoro-4-morpholinophenyl)-5-fluoropyrazin-2-yl)-4-methylisoquinolin-1(2H)-one], for which the half-inhibitory concentration (IC50) fell in the range of 101 to 1000 nM.

With `C[C@@H]1CN(c2ccc(-c3nc(-c4ccc5c(=O)[nH]cc(F)c5c4)c(N)nc3F)cc2CN(C)C)C[C@H](C)O1` [Example I-230, 6-(3-amino-6-(3-((dimethylamino)methyl)-4-((2R,6S)-2,6-dimethylmorpholino)phenyl)-5-fluoropyrazin-2-yl)-4-fluoroisoquinolin-1(2H)-one], the IC50 lay in the range of 0.1 to 10 nM.

For the compound `CN1CCN(c2ccc(-c3nc(-c4ccc5c(c4)CCNC5=O)c(N)nc3F)cc2)CC1` [Example I-41, 6-(3-amino-5-fluoro-6-(4-(4-methylpiperazin-1-yl)phenyl)pyrazin-2-yl)-3,4-dihydroisoquinolin-1(2H)-one], the IC50 is 0.1 to 10 nM.

`COCCN(C)Cc1cc(-c2nc(-c3ccc4c(c3)CCNC4=O)c(N)nc2F)ccc1C1CCOCC1` [Example I-174, 6-(3-amino-5-fluoro-6-(3-(((2-methoxyethyl)(methyl)amino)methyl)-4-(tetrahydro-2H-pyran-4-yl)phenyl)pyrazin-2-yl)-3,4-dihydroisoquinolin-1(2H)-one]: the IC50 lay in the range of 0.1 to 10 nM.

With `Cc1[nH]c(=O)c2ccc(-c3nc(-c4ccc(N5CCN(CC6CC6)CC5)cc4)c(F)nc3N)cc2c1Cl` [Example I-122, 6-(3-amino-6-(4-(4-(cyclopropylmethyl)piperazin-1-yl)phenyl)-5-fluoropyrazin-2-yl)-4-chloro-3-methylisoquinolin-1(2H)-one], the IC50 lay within 0.1 to 10 nM.

In the case of `Cc1nc2cc(-c3nc(-c4ccc(N5C[C@@H](C)O[C@@H](C)C5)c(CN(C)C)c4)c(F)nc3N)ccc2c(=O)[nH]1` [Example I-194, 7-(3-amino-6-(3-((dimethylamino)methyl)-4-((2R,6S)-2,6-dimethylmorpholino)phenyl)-5-fluoropyrazin-2-yl)-2-methylquinazolin-4(3H)-one], the IC50 lay within 11 to 100 nM.

As for `Nc1nc(F)c(-c2ccc(N3CCN(CCCC(F)F)CC3)cc2)nc1-c1cc2c(cc1F)C(=O)NCC2` [Example I-69, 6-(3-amino-6-(4-(4-(4,4-difluorobutyl)piperazin-1-yl)phenyl)-5-fluoropyrazin-2-yl)-7-fluoro-3,4-dihydroisoquinolin-1(2H)-one], the IC50 lay in the range of 0.1 to 10 nM.

For the compound `Nc1nc(F)c(-c2ccc(N3CCOCC3)c(CN3CCCCC3)c2)nc1-c1ccc2c(c1)CCNC2=O` [Example I-185, 6-(3-amino-5-fluoro-6-(4-morpholino-3-(piperidin-1-ylmethyl)phenyl)pyrazin-2-yl)-3,4-dihydroisoquinolin-1(2H)-one], the IC50 was 11 to 100 nM.

For orientation: IC50 means the midpoint of a concentration-inhibition curve.

Source of the values: patent publication US20240425479A1, “HALO-SUBSTITUTED AMINO AZA-HETEROARYL COMPOUNDS AS INHIBITORS OF THE HAEMATOPOIETIC PROGENITOR KINASE 1 (HPK1)” (priority 2021, published 2024).
